Source: ChEMBL document CHEMBL5506000, “Design, synthesis and antibacterial evaluation of low toxicity amphiphilic-cephalosporin derivatives” (Eur J Med Chem, 2024)
In brackets after ≈: the same amount, converted by molar mass. Activity calls are given as the source filed them. The calls are words filed in the database; no cut-off is given here.

What was measured:
[1] = system: Stenotrophomonas maltophilia; test: Antibacterial activity against Stenotrophomonas maltophilia ATCC 17808 by CLSI protocol based assay; type: functional
Enterococcus faecalis = test: Antibacterial activity against Enterococcus faecalis ATCC 29212 by CLSI protocol based assay; type: functional
Staphylococcus aureus [2] = test: Antibacterial activity against Staphylococcus aureus ATCC 29213 by CLSI protocol based assay; type: functional
[3] = Hemolytic activity in sheep RBC; type: toxicity, cell-based, Ovis aries, Erythrocyte; conditions: sheep red blood cells (erythrocytes)
Escherichia coli = test: Antibacterial activity against Escherichia coli ATCC 25922 by CLSI protocol based assay; type: functional
Staphylococcus aureus [4] = test: Antibacterial activity against Staphylococcus aureus assessed as inhibition of metabolic activity at MIC; type: functional
Staphylococcus aureus [5] = test: Antibacterial activity against Staphylococcus aureus assessed as reduction in metabolic activity at sub-MIC; type: functional, organism-based
Staphylococcus aureus [6] = test: Antibacterial activity against Staphylococcus aureus measured after 3 to 6 hrs in presence of 50% plasma; type: functional, organism-based; conditions: time 3-6 hrs
Staphylococcus aureus [7] = test: Post-antibiotic effect against Staphylococcus aureus at 4 times of MIC incubated for 1 hrs; type: functional
Staphylococcus aureus [8] = test: Post-antibiotic effect against Staphylococcus aureus at 1 times of MIC incubated for 1 hrs; type: functional
Staphylococcus aureus [9] = test: Antibacterial activity against early exponential growth phase Staphylococcus aureus assessed as reduction in bacterial colony at 8 times of MIC measured at 8 to 24 hrs by time-kill kinetics assay; type: functional, organism-based; conditions: time 8-24 hrs
Cell membrane [10] = test: Induction of cell membrane depolarization in Staphylococcus aureus assessed as increase in fluorescence intensity at 16 microg/ml by DiSC3(5) dye based assay; type: cell membranes; conditions: dose 16.0 µg/ml
Staphylococcus aureus [11] = test: Antibacterial activity against methicillin resistant Staphylococcus aureus clinical isolates assessed as 50% inhibition of bacterial growth; type: functional
Staphylococcus aureus [12] = test: Antibacterial activity against methicillin resistant Staphylococcus aureus; type: functional
[13] = Hemolytic activity in sheep RBC assessed as hemolysis rate at 1280 microg/ml relative to control; type: toxicity, cell-based, Ovis aries, Erythrocyte; conditions: sheep red blood cells (erythrocytes), dose 1280 µg/ml, read-out: Activity
Cell membrane [14] = test: Induction of cell membrane damage in Staphylococcus aureus assessed as increase in protein leakage; type: cell membranes
Cell membrane [15] = test: Induction of inner membrane permeabilization in Staphylococcus aureus assessed as increase in fluorescence intensity at 16 microg/ml by PI staining based analysis; type: cell membranes; conditions: dose 16.0 µg/ml

CCCCCCNC(=O)c1cc[n+](CC2=C(C(=O)[O-])N3C(=O)[C@@H](NC(=O)/C(=N\OC)c4csc(N)n4)[C@H]3SC2)cc1.O=C(O)C(F)(F)F
MIC [1]: 2 µg/mL
MIC (Enterococcus faecalis): 4 µg/mL
MIC (Staphylococcus aureus [2]): 2 µg/mL
HC50 [3]: > 1280 µg/mL
MIC (Escherichia coli): 2 µg/mL

CO/N=C(\C(=O)N[C@@H]1C(=O)N2C(C(=O)[O-])=C(COC(C)=O)CS[C@H]12)c1csc(N)n1.[Na+] [CEFOTAXIME SODIUM]
MIC [1]: 2 µg/mL
MIC (Enterococcus faecalis): 16 µg/mL
MIC (Staphylococcus aureus [2]): 1 µg/mL
inhibition (INH) (Staphylococcus aureus [4]): ~100%
HC50 [3]: > 1280 µg/mL
Activity (Staphylococcus aureus [5]): Active
MIC (Escherichia coli): 2 µg/mL

CCCCCCCCCCNC(=O)c1ccc[n+](CC2=C(C(=O)[O-])N3C(=O)[C@@H](NC(=O)/C(=N\OC(C)(C)C(=O)O)c4csc(N)n4)[C@H]3SC2)c1.O=C(O)C(F)(F)F
MIC [1]: 64 µg/mL
MIC (Enterococcus faecalis): 128 µg/mL
MIC (Staphylococcus aureus [2]): 32 µg/mL
HC50 [3]: > 1280 µg/mL
MIC (Escherichia coli): 32 µg/mL

CCCCCCCCCCNC(=O)c1cc[n+](CC2=C(C(=O)[O-])N3C(=O)[C@@H](NC(=O)/C(=N\OC(C)(C)C(=O)O)c4csc(N)n4)[C@H]3SC2)cc1.O=C(O)C(F)(F)F
MIC [1]: 128 µg/mL
MIC (Enterococcus faecalis): > 128 µg/mL
MIC (Staphylococcus aureus [2]): 32 µg/mL
HC50 [3]: > 1280 µg/mL
MIC (Escherichia coli): 64 µg/mL

CCCCNC(=O)c1cc[n+](CC2=C(C(=O)[O-])N3C(=O)[C@@H](NC(=O)/C(=N\OC(C)(C)C(=O)O)c4csc(N)n4)[C@H]3SC2)cc1.O=C(O)C(F)(F)F
MIC [1]: 1 µg/mL
MIC (Enterococcus faecalis): 128 µg/mL
MIC (Staphylococcus aureus [2]): 64 µg/mL
HC50 [3]: > 1280 µg/mL
MIC (Escherichia coli): 4 µg/mL

CCCCCCCCNC(=O)c1cc[n+](CC2=C(C(=O)[O-])N3C(=O)[C@@H](NC(=O)/C(=N\OC(C)(C)C(=O)O)c4csc(N)n4)[C@H]3SC2)cc1.O=C(O)C(F)(F)F
MIC [1]: 64 µg/mL
MIC (Enterococcus faecalis): > 128 µg/mL
MIC (Staphylococcus aureus [2]): 32 µg/mL
HC50 [3]: > 1280 µg/mL
MIC (Escherichia coli): 32 µg/mL

CC(C)(O/N=C(\C(=O)N[C@@H]1C(=O)N2C(C(=O)[O-])=C(C[n+]3ccccc3)CS[C@H]12)c1csc(N)n1)C(=O)O [CEFTAZIDIME]
MIC [1]: 0.063 µg/mL (≈ 0.115 µM)
MIC (Enterococcus faecalis): 128 µg/mL (≈ 234 µM)
MIC (Staphylococcus aureus [2]): 16 µg/mL (≈ 29.3 µM)
HC50 [3]: > 1280 µg/mL
MIC (Escherichia coli): 0.063 µg/mL (≈ 0.115 µM)

CCCCCCNC(=O)c1cc[n+](CC2=C(C(=O)[O-])N3C(=O)[C@@H](NC(=O)/C(=N\OC(C)(C)C(=O)O)c4csc(N)n4)[C@H]3SC2)cc1.O=C(O)C(F)(F)F
MIC [1]: 8 µg/mL
MIC (Enterococcus faecalis): 64 µg/mL
MIC (Staphylococcus aureus [2]): 32 µg/mL
HC50 [3]: > 1280 µg/mL
MIC (Escherichia coli): 32 µg/mL

CN[C@H](CC(C)C)C(=O)N[C@H]1C(=O)N[C@@H](CC(N)=O)C(=O)N[C@H]2C(=O)N[C@H]3C(=O)N[C@H](C(=O)N[C@H](C(=O)O)c4cc(O)cc(O)c4-c4cc3ccc4O)[C@H](O)c3ccc(c(Cl)c3)Oc3cc2cc(c3O[C@@H]2O[C@H](CO)[C@@H](O)[C@H](O)[C@H]2O[C@H]2C[C@](C)(N)[C@H](O)[C@H](C)O2)Oc2ccc(cc2Cl)[C@H]1O [VANCOMYCIN]
Activity (Staphylococcus aureus [6]): Active
PAE (Staphylococcus aureus [7]): 1.37 h
MIC (Enterococcus faecalis): 2 µg/mL (≈ 1.38 µM)
PAE (Staphylococcus aureus [8]): 0.67 h
HC50 [3]: > 1280 µg/mL
Activity (Staphylococcus aureus [9]): Active
Activity (Cell membrane [10]): inactive

CC[C@H]1OC(=O)[C@H](C)[C@@H](O[C@H]2C[C@@](C)(OC)[C@@H](O)[C@H](C)O2)[C@H](C)[C@@H](O[C@@H]2O[C@H](C)C[C@H](N(C)C)[C@H]2O)[C@](C)(O)C[C@@H](C)C(=O)[C@H](C)[C@@H](O)[C@]1(C)O [ERYTHROMYCIN]
MIC50 (Staphylococcus aureus [11]): > 128 µg/mL

CCCCCCN(Cc1ccc(-c2ccc(CN(CCCCCC)C(=O)[C@@H](N)CCCCN)cc2)cc1)C(=O)[C@@H](N)CCCCN.O=C(O)C(F)(F)F.O=C(O)C(F)(F)F.O=C(O)C(F)(F)F.O=C(O)C(F)(F)F
MIC (Staphylococcus aureus [12]): 3.1 µg/mL

CCCCNC(=O)c1ccc[n+](CC2=C(C(=O)[O-])N3C(=O)[C@@H](NC(=O)/C(=N\OC)c4csc(N)n4)[C@H]3SC2)c1.O=C(O)C(F)(F)F
MIC [1]: 0.5 µg/mL
MIC (Enterococcus faecalis): 4 µg/mL
MIC (Staphylococcus aureus [2]): 2 µg/mL
HC50 [3]: > 1280 µg/mL
MIC (Escherichia coli): 0.5 µg/mL

CCCCCCCCCCNC(=O)c1cc[n+](CC2=C(C(=O)[O-])N3C(=O)[C@@H](NC(=O)/C(=N\OC)c4csc(N)n4)[C@H]3SC2)cc1.O=C(O)C(F)(F)F
MIC [1]: 8 µg/mL
MIC (Enterococcus faecalis): 4 µg/mL
MIC (Staphylococcus aureus [2]): 1 µg/mL
HC50 [3]: > 1280 µg/mL
MIC (Escherichia coli): 8 µg/mL

CCCCCCNC(=O)c1ccc[n+](CC2=C(C(=O)[O-])N3C(=O)[C@@H](NC(=O)/C(=N\OC(C)(C)C(=O)O)c4csc(N)n4)[C@H]3SC2)c1.O=C(O)C(F)(F)F
MIC [1]: 4 µg/mL
MIC (Enterococcus faecalis): 128 µg/mL
MIC (Staphylococcus aureus [2]): 32 µg/mL
HC50 [3]: > 1280 µg/mL
MIC (Escherichia coli): 4 µg/mL

CCCCNC(=O)c1cc[n+](CC2=C(C(=O)[O-])N3C(=O)[C@@H](NC(=O)/C(=N\OC)c4csc(N)n4)[C@H]3SC2)cc1.O=C(O)C(F)(F)F
MIC [1]: 1 µg/mL
MIC (Enterococcus faecalis): 4 µg/mL
MIC (Staphylococcus aureus [2]): 4 µg/mL
HC50 [3]: > 1280 µg/mL
MIC (Escherichia coli): 1 µg/mL

CCCCCCCCCCNC(=O)c1ccc[n+](CC2=C(C(=O)[O-])N3C(=O)[C@@H](NC(=O)/C(=N\OC)c4csc(N)n4)[C@H]3SC2)c1.O=C(O)C(F)(F)F
MIC [1]: 8 µg/mL
MIC (Enterococcus faecalis): 4 µg/mL
MIC (Staphylococcus aureus [2]): 0.5 µg/mL
hemolysis at 1280 microg/ml [13]: 12.7%
HC50 [3]: > 1280 µg/mL
MIC (Escherichia coli): 8 µg/mL

CCCCNC(=O)c1ccc[n+](CC2=C(C(=O)[O-])N3C(=O)[C@@H](NC(=O)/C(=N\OC(C)(C)C(=O)O)c4csc(N)n4)[C@H]3SC2)c1.O=C(O)C(F)(F)F
MIC [1]: 0.5 µg/mL
MIC (Enterococcus faecalis): 128 µg/mL
MIC (Staphylococcus aureus [2]): 32 µg/mL
HC50 [3]: > 1280 µg/mL
MIC (Escherichia coli): 1 µg/mL

CCCCCCCCNC(=O)c1cc[n+](CC2=C(C(=O)O)N3C(=O)[C@@H](NC(=O)/C(=N\OC)c4csc(N)n4)[C@H]3SC2)cc1.O=C([O-])C(F)(F)F
MIC [1]: 4 µg/mL
MIC (Enterococcus faecalis): 2 µg/mL
MIC (Staphylococcus aureus [2]): 1 µg/mL
HC50 [3]: > 1280 µg/mL
MIC (Escherichia coli): 8 µg/mL

CCCCCCCCNC(=O)c1ccc[n+](CC2=C(C(=O)[O-])N3C(=O)[C@@H](NC(=O)/C(=N\OC(C)(C)C(=O)O)c4csc(N)n4)[C@H]3SC2)c1.O=C(O)C(F)(F)F
MIC [1]: 16 µg/mL
MIC (Enterococcus faecalis): 128 µg/mL
MIC (Staphylococcus aureus [2]): 32 µg/mL
HC50 [3]: > 1280 µg/mL
MIC (Escherichia coli): 16 µg/mL

CCCCCCNC(=O)c1ccc[n+](CC2=C(C(=O)[O-])N3C(=O)[C@@H](NC(=O)/C(=N\OC)c4csc(N)n4)[C@H]3SC2)c1.O=C(O)C(F)(F)F
MIC [1]: 2 µg/mL
MIC (Enterococcus faecalis): 4 µg/mL
MIC (Staphylococcus aureus [2]): 2 µg/mL
HC50 [3]: > 1280 µg/mL
MIC (Escherichia coli): 4 µg/mL

C[C@@H](O)[C@H]1C(=O)N2C(C(=O)O)=C(S[C@@H]3CN[C@H](C(=O)N(C)C)C3)[C@H](C)[C@H]12 [MEROPENEM]
MIC [1]: 0.031 µg/mL (≈ 0.0808 µM)
HC50 [3]: > 1280 µg/mL
MIC (Escherichia coli): 0.031 µg/mL (≈ 0.0808 µM)

CC[C@H](C)[C@H](NC(=O)CN)C(=O)NCC(=O)N[C@@H](C)C(=O)N[C@H](C(=O)N[C@@H](CC(C)C)C(=O)N[C@@H](CCCCN)C(=O)N[C@H](C(=O)N[C@@H](CC(C)C)C(=O)N[C@H](C(=O)N[C@H](C(=O)NCC(=O)N[C@@H](CC(C)C)C(=O)N1CCC[C@H]1C(=O)N[C@@H](C)C(=O)N[C@@H](CC(C)C)C(=O)N[C@H](C(=O)N[C@@H](CO)C(=O)N[C@@H](Cc1c[nH]c2ccccc12)C(=O)N[C@H](C(=O)N[C@@H](CCCCN)C(=O)N[C@@H](CCCNC(=N)N)C(=O)N[C@@H](CCCCN)C(=O)N[C@@H](CCCNC(=N)N)C(=O)N[C@@H](CCC(N)=O)C(=O)N[C@@H](CCC(N)=O)C(N)=O)[C@@H](C)CC)[C@@H](C)CC)[C@@H](C)O)[C@@H](C)O)C(C)C)C(C)C [MELITTIN]
MIC [1]: 8 µg/mL (≈ 2.81 µM)
Activity (Cell membrane [14]): Active
MIC (Enterococcus faecalis): 2 µg/mL (≈ 0.703 µM)
inhibition (INH) (Staphylococcus aureus [4]): ~100%
Activity (Cell membrane [15]): Active
Activity (Staphylococcus aureus [5]): Active
Activity (Cell membrane [10]): Active

GENTAMICIN
Activity (Cell membrane [15]): inactive
Activity (Cell membrane [10]): inactive
